Measurements taken from publication PMC6843786, “Temporin-SHa and Its Analogs as Potential Candidates for the Treatment of Helicobacter pylori” (Biomolecules, 2019).
Read-outs that look alike come from different tables or passages of the source. Non-standard residues stand in square brackets, D forms with d. Residues, ends and D or L forms follow the SMILES beside them.

How the values were obtained:
[1] = system: total lipids extracted from H. pylori (ATCC 43504); experiment: Lipid insertion assay (lipid monolayer, critical pressure of insertion); set-up: species or system biophysical; settings: peptide 1 µM, PBS pH 7.4, from the line fits of Figure 4
Procedure: Peptide-lipid interaction was measured using reconstituted lipid monolayer at the air-water interface as previously described. Total lipids were extracted from overnight cultures of H. pylori (ATCC 43504) using Folch extraction procedure as previously described. Extracted total lipids were dried, resolubilized in chloroform:methanol (2:1, v/v) and stored at -20 °C under nitrogen. For peptide-lipid interaction assay, total lipid extract was spread using a 50 μL Hamilton's syringe at the surface of 800 μL of sterile PBS creating a lipid monolayer at the air-water interface. Lipids were added until the surface pressure reached the desired value. […] The variation of the surface pressure caused by peptide injection was then continuously monitored using a fully automated microtensiometer (μTROUGH SX, Kibron Inc., Helsinki, Finland) until reaching equilibrium (maximal surface pressure increase being usually obtained after 15-25 min). […] Variation of surface pressure was plotted as a function of initial surface pressure and the critical pressure of insertion of each peptide into H. pylori lipids was calculated as the theoretical value of initial pressure of lipid monolayer not permissive to peptide insertion, i.e., giving a variation of pressure equal to 0 mN/m.

H. pylori (ATCC 43504) [2] = system: H. pylori (ATCC 43504)
Text: (§1) H. pylori used in this study were either the reference strain obtained from the American Type Culture Collection (ATCC 43504) or clinical strains received frozen from our collaborator Josette Raymond from Hospital Cochin, Paris. Strains were obtained from patients who underwent a gastroendoscopy performed for various gastro-intestinal disorders according to the recommendations of Haute Autorité de Santé (HAS). During the endoscopy, biopsy samples were taken from antrum and corpus. Samples were then crushed, and the material was used for bacterial culture and molecular methods. An antibiogram was performed and strains were then frozen at -80 °C in a broth with 10% glycerol. Bacteria were cultured as previously described. Briefly, H. pylori (ATCC 43504) was cultured in brain heart infusion (BHI) and incubated at 37 °C for 16 h in microaerophilic condition in BD GasPak EZ using BD GasPak EZ CampyPak container system sachets (BD Biosciences, Le Pont-de-Claix, France). For clinical strains, a sample from the frozen bacteria was streaked on Blood Agar (Base) (Sigma-Aldrich, Illkirch-Graffenstaden, France) supplemented with 5% horse defibrinated blood (Fisher Scientific, Les Ulis, France) and 2% isovitale-X (Fisher Scientific, Illkirch-Graffenstaden, France). The petri dishes were then incubated at 37 °C for 4–7 days in microaerophilic condition. Then, a colony is transferred to 3 mL Mueller Hinton (MH) broth supplemented with 10% fetal bovine serum (FBS) and 2% isovitale-X. The cultures were then incubated for 4–7 days until the bacteria grow before further experiments.
(§2) Briefly, after the growth of H. pylori in liquid culture the optical density (OD) of the bacterial suspensions were read at 600 nm and adjusted to one. Stock solutions of the peptides at 1 mM were prepared in sterile water. Bacteria were diluted in medium to reach bacterial density around 10^5 bacteria/mL. One-hundred microliters per well of bacterial suspension were then added into sterile polypropylene 96-well microplates (Greiner BioOne, Paris, France) and exposed to increasing concentrations of peptides (from zero to 100 µM, 1:2 serial dilution). […] Plates were incubated at 37 °C for 24 h for H. pylori (ATCC 43504) and for 4–7 days for the clinical strains. H. pylori was tested in microaerophilic conditions generated using micro-anaerobic BD GasPak system. At the end of the incubation, OD600nm was measured using microplate reader (Synergy Mx, Biotek, Colmar, France). The MIC was defined as the lowest concentration of drug that inhibited visible growth of the organism. Experiments were conducted in independent triplicate (n = 3).

[3] = system: clinical strains of H. pylori; settings: for MIC: MH + 10% FBS + 2% isovitale-X
Text: as §1, §2

N87 cells = experiment: In vitro toxicity assay using human gastric cells (resazurin); assay type: cell-based
Procedure: [26] Human gastric cells N87 (ATCC CRL-5822) were cultured in RPMI-1640 medium supplemented with 10% fetal calf serum (FCS), 1% L-glutamine and 1% antibiotics (all from Invitrogen, Carlsbad, CA, USA) and were routinely seeded onto 25 cm^2 flasks maintained in a 5% CO2 incubator at 37 °C. For the toxicity assay, cells grown on 25 cm^2 flasks were detached using trypsin–EDTA solution (from Thermofisher), counted using Mallasez counting chamber and seeded into 96-well cell culture plates (Greiner Bio-one) at approximately 10^4 cells per well. The cells were left to grow for 48–72 h at 37 °C in a 5% CO2 incubator until they reached confluence. Plates were then aspirated and increasing concentrations of peptides were added to the cells for 48 h at 37 °C in a 5% CO2 incubator, volume of water corresponding to the volume of peptides being used as negative control. At the end of the incubation, wells were aspirated, and cell viability was evaluated using resazurin-based in vitro toxicity assay kit (Sigma-Aldrich) following manufacturer’s instructions. Briefly, resazurin stock solution was diluted 1:10 in sterile PBS containing calcium and magnesium (PBS^++, pH 7.4) and empty wells were filled with 100 µL of the diluted solution. After 4 h incubation at 37 °C, fluorescence intensity was measured using microplate reader (Synergy Mx, Biotek) with an excitation wavelength of 530 nm and an emission wavelength of 590 nm. The fluorescence values were normalized by the controls and expressed as percent viability.

H. pylori (ATCC 43504) [4] = system: H. pylori (ATCC 43504); remark: listed apart in the source
Procedure: as §2
(§3) It is also rich with mucus to protect it from the aggressive acidity. For this reason, the impact of mucins and pepsin on the activity of the peptides was investigated. The impact of the gastric mucins on peptide activity was evaluated using a combination of commercial porcine stomach mucins MUC2 and MUC3 (Sigma–Aldrich) at a final concentration of 1 mg/mL sterilized using 0.2 µm filter. This concentration was used based on the estimated concentration of mucins present in the mucus in vivo [27]. The effect of mucins on peptides activity was evaluated by MIC and by time killing assay as explained below. The resistance of the peptides to pepsin was tested as previously described with some changes. […] This concentration was used since it corresponds the pepsin concentration in the stomach (0.5–1 mg/mL).

H. pylori (ATCC 43504) [5] = experiment: MIC after digestion by pepsin (resistance to pepsin); settings: 4 h at 37 °C with pepsin 1 mg/mL in HCl pH 2
Procedure: as §2, §3

H. pylori (ATCC 43504) [6] = experiment: Membrane permeabilization assay (propidium iodide); settings: not told
Procedure: Bacterial membrane permeabilization was evaluated using the cell-impermeable DNA/RNA probe propidium iodide as previously explained. Logarithmic growing bacterial suspension of H. pylori (ATCC 43504) was prepared from overnight bacterial suspension after 1:10 dilution. After 3 h incubation at 37 °C, in microaerophilic condition, bacterial suspensions were centrifuged for 5 min at 3000× g. Cell pellets were then resuspended in sterile PBS at about […]. Propidium iodide (solution at 1 mg/mL, Sigma Aldrich) was then added to the suspension at a final concentration of 60 µM. 100 µL of this suspension were then transferred into 96-well black plates and were exposed to increasing concentrations of peptides obtained by serial dilution (from zero to 100 µM, 1:2 dilution). […] Kinetics of fluorescence variations (excitation at 530 nm and emission at 590 nm) were then recorded over 240 min of incubation at 37 °C in micro-aerobic condition using a microplate reader (Biotek, Synergy Mx). The effect of the peptides on the membrane integrity was expressed in percentage of permeabilization, CTAB at 300 µM being used as positive control giving 100% permeabilization. All experiments were done in triplicate.

Compound: CC[C@H](C)[C@H](NC(=O)[C@@H](C)NC(=O)[C@H](CO)NC(=O)[C@H](CC(C)C)NC(=O)[C@@H](N)Cc1ccccc1)C(=O)N[C@H](C(=O)NCC(=O)N[C@@H](CCSC)C(=O)N[C@@H](CC(C)C)C(=O)NCC(=O)N[C@@H](CCCCN)C(=O)N[C@@H](CC(C)C)C(=O)N[C@@H](Cc1ccccc1)C(N)=O)C(C)C [NST2, H-Phe^1-Leu^2-Ser^3-D-Ala^4-Ile^5-Val^6-Gly^7-Met^8-Leu^9-Gly^10-Lys^11-Leu^12-Phe^13-NH2] (H-FLS[dA]IVGMLGKLF-NH2)
- critical pressure of insertion (CPI) [1]: 37.86 mN/m
- MIC on H. pylori (ATCC 43504) (H. pylori (ATCC 43504) [2]; MH medium, 24 h, microaerophilic): 12.5 µM
- MIC on H. pylori (ATCC 43504) in MH supplemented with 10% FBS (H. pylori (ATCC 43504) [2]; MH supplemented with 10% FBS): 50 µM
- reduction in the antibacterial activity compared to temporin-SHa (H. pylori (ATCC 43504) [2]; from MIC on H. pylori (ATCC 43504)): 4 times
- MIC values against resistant clinical strains (span over all strains) ([3]; all resistant clinical strains, MH + 10% FBS): 50 to 100 µM
- MIC ([3]; clinical strain BM18, resistance Clari/Metro): 50 µM
- MIC ([3]; clinical strain EM68, resistance Clari/Metro): 100 µM
- MIC ([3]; clinical strain LN18, resistance Clari): 50 µM
- MIC ([3]; clinical strain MF76, resistance Clari/Metro): 50 µM
- MIC ([3]; clinical strain MP78, resistance Clari/Metro): 50 µM
- MIC ([3]; clinical strain MS67, resistance Clari/Metro): 50 µM
- MIC ([3]; clinical strain NM44, resistance Clari/Metro): 50 µM
- IC50 (N87 cells; 48 h incubation, resazurin cell viability, read-out: IC50 on N87 Cells): 1250 ± 240 µM
- increase in toxicity to human gastric cells compared to temporin-SHa (N87 cells; from IC50 on N87 cells): around 1.2 fold
- increase of MIC in the presence of mucins (H. pylori (ATCC 43504) [4]; MUC2 and MUC3 at 1 mg/mL versus no mucins): two
- MIC in the Presence of mucins (H. pylori (ATCC 43504) [4]; porcine gastric mucins MUC2 and MUC3 at 1 mg/mL): 25 µM
- MIC after Digestion by Pepsin (H. pylori (ATCC 43504) [5]): >50 µM

Compound: CC[C@H](C)[C@H](NC(=O)[C@H](C)NC(=O)[C@H](CO)NC(=O)[C@H](CC(C)C)NC(=O)[C@@H](N)Cc1ccccc1)C(=O)N[C@H](C(=O)NCC(=O)N[C@@H](CCSC)C(=O)N[C@@H](CC(C)C)C(=O)N[C@@H](C)C(=O)N[C@@H](CCCCN)C(=O)N[C@@H](CC(C)C)C(=O)N[C@@H](Cc1ccccc1)C(N)=O)C(C)C [NSTL7, H-Phe^1-Leu^2-Ser^3-L-Ala^4-Ile^5-Val^6-Gly^7-Met^8-Leu^9-L-Ala^10-Lys^11-Leu^12-Phe^13-NH2] (H-FLSAIVGMLAKLF-NH2)
- critical pressure of insertion (CPI) [1]: not able to insert at all
- membrane permeabilization of H. pylori (ranking in words) (H. pylori (ATCC 43504) [6]): weakest permeabilization effect
- MIC on H. pylori (ATCC 43504) (H. pylori (ATCC 43504) [2]; ATCC 43504, 24 h): 50 µM
- IC50 (N87 cells; 48 h): 2290 ± 762 µM

Compound: CC[C@H](C)[C@H](NC(=O)[C@@H](C)NC(=O)[C@H](CO)NC(=O)[C@H](CC(C)C)NC(=O)[C@@H](N)Cc1ccccc1)C(=O)N[C@H](C(=O)N[C@H](C)C(=O)N[C@@H](CCSC)C(=O)N[C@@H](CC(C)C)C(=O)N[C@H](C)C(=O)N[C@@H](CCCCN)C(=O)N[C@@H](CC(C)C)C(=O)N[C@@H](Cc1ccccc1)C(N)=O)C(C)C [NST5, H-Phe^1-Leu^2-Ser^3-D-Ala^4-Ile^5-Val^6-D-Ala^7-Met^8-Leu^9-D-Ala^10-Lys^11-Leu^12-Phe^13-NH2] (H-FLS[dA]IV[dA]ML[dA]KLF-NH2)
- critical pressure of insertion (CPI) [1]: 33.99 mN/m
- membrane permeabilization of H. pylori (ranking in words) (H. pylori (ATCC 43504) [6]): weakest permeabilization effect
- MIC on H. pylori (ATCC 43504) (H. pylori (ATCC 43504) [2]; ATCC 43504, 24 h): 100 µM
- increase in toxicity to human gastric cells compared to temporin-SHa (N87 cells): twice
- IC50 (N87 cells; 48 h): 762 ± 235 µM
